Laboratory results from US20240350458A1, “14-3-3 PROTEIN MODULATORS AS ANTITUMOR AGENTS” (priority 2021, published 2024).
Where two headings read alike, the source gives them in different places.

Key:
[1] = system: 8505c; test: MTT assay, ATC cell line, fixed concentrations; assay type: cell-based; details: Homo sapiens, 48 h, read-out: % of proliferating cells; for viability at 0.02 µM: 20 nM; for viability at 0.1 µM: 100 nM; for viability at 20 µM: 20000 nM
Procedure: (§1) The compounds FC91, SB14, SB17, SB18, SB19, SB20, SB21 and FC85 were employed in a cellular screening at fixed concentration ranging from 20 nM to 20 μM.
(§2) Table 2: Four human thyroid cancer cell lines were incubated with FC91, SB14, SB17, SB18, SB19, SB20A, SB20b, SB21 and FC85 for 48 h at fixed concentration of 20,100 and 20000 nM and then assayed with MTT. Data are reported as % of proliferating cells.

[2] = system: FRO; test: MTT assay, ATC cell line, fixed concentrations; assay type: cell-based; details: Homo sapiens, 48 h, read-out: % of proliferating cells; for viability at 0.02 µM: 20 nM; for viability at 0.1 µM: 100 nM; for viability at 20 µM: 20000 nM
Procedure: as §1, §2

[3] = system: Nthory; test: MTT assay, ATC cell line, fixed concentrations; assay type: cell-based; details: Homo sapiens, 48 h, read-out: % of proliferating cells; for viability at 0.02 µM: 20 nM; for viability at 0.1 µM: 100 nM; for viability at 20 µM: 20000 nM
Procedure: as §1, §2

[4] = system: SW1736; test: MTT assay, ATC cell line, fixed concentrations; assay type: cell-based; details: Homo sapiens, SW-1736, 48 h, read-out: % of proliferating cells; for viability at 0.02 µM: SW1736, 20 nM; for viability at 0.1 µM: SW1736, 100 nM; for viability at 20 µM: SW1736, 20000 nM
Procedure: as §1, §2

[5] = system: four human ATC cell lines; test: Cellular screening in four human ATC cell lines; assay type: cell-based
[6] = system: FARAGE; test: MTT proliferation assay, B-cell lymphoma cell line; assay type: cell-based; details: 72 h of drug incubation
Procedure: (§3) All the above compounds were tested in vitro for their anticancer activity against a panel of eight B-cell lymphoma cell lines by MTT proliferation assay. The tested cell lines belonging to mantle cell lymphoma (MCL: REC1, Z138), activated B-cell diffuse large B-cell lymphoma (ABC-DLBCL: R11, HBL1, U2932, TMD8), germinal center B-cell diffuse large B-cell lymphoma (GCB-DLBCL: SU-DHL-10, FARAGE) subtypes. In overall, MCL cell lines present Cyclin D1 overexpression, while ABC- and GCB-DLBCL's proliferation is BCR and BCL6/HDACs driven, respectively. At the RNA level, all tested lymphoma cell lines were characterized by an overexpression of 14-3-3 zeta as reported for B-cell lymphomas resistant to chemotherapeutic regimen.

[7] = system: HBL1; test: MTT proliferation assay, B-cell lymphoma cell line; assay type: cell-based; details: HBL1, 72 h of drug incubation
Procedure: as §3

[8] = system: REC1; test: MTT proliferation assay, B-cell lymphoma cell line; assay type: cell-based; details: Homo sapiens; REC1, 72 h of drug incubation
Procedure: as §3

[9] = system: RI1; test: MTT proliferation assay, B-cell lymphoma cell line; assay type: cell-based; details: Ri-1; RI1, 72 h of drug incubation
Procedure: as §3

[10] = system: SUDHL10; test: MTT proliferation assay, B-cell lymphoma cell line; assay type: cell-based; details: Homo sapiens, SU-DHL10; SUDHL10, 72 h of drug incubation
Procedure: as §3

[11] = system: TMD8; test: MTT proliferation assay, B-cell lymphoma cell line; assay type: cell-based; details: Homo sapiens; TMD8, 72 h of drug incubation
Procedure: as §3

[12] = system: U2932; test: MTT proliferation assay, B-cell lymphoma cell line; assay type: cell-based; details: Homo sapiens; U2932, 72 h of drug incubation
Procedure: as §3

[13] = system: Z138; test: MTT proliferation assay, B-cell lymphoma cell line; assay type: cell-based; details: Homo sapiens, Z-138; Z138, 72 h of drug incubation
Procedure: as §3

[14] = system: eight B-cell lymphoma cell lines; test: MTT proliferation assay, panel of eight B-cell lymphoma cell lines; assay type: cell-based; details: for IC50: B-cell, read-out: IC50 in all eight lymphoma cell lines; for activity in lymphoma cell lines: eight lymphoma cell lines
Procedure: as §3

[15] = system: glioblastoma cell; details: combined with temozolomide; cited from earlier work
[16] = Homo sapiens, in one (i.e. SB17) to four (i.e. SB20b) cell lines of anaplastic thyroid cancer, read-out: IC50 value in ATC cell lines
[17] = human ATC cell lines, read-out: IC50 values in ATC cell lines

Compound | viability at 0.02 µM [1] [%] | viability at 0.1 µM [1] [%] | viability at 20 µM [1] [%] | viability at 0.02 µM [2] [%] | viability at 0.1 µM [2] [%] | viability at 20 µM [2] [%] | viability at 0.02 µM [3] [%] | viability at 0.1 µM [3] [%] | viability at 20 µM [3] [%] | viability at 0.02 µM [4] [%] | viability at 0.1 µM [4] [%] | viability at 20 µM [4] [%] | IC50 [5, 16] [nM] | IC50 [6] [nM] | IC50 [7] [nM] | IC50 [8] [nM] | IC50 [9] [nM] | IC50 [10] [nM] | IC50 [11] [nM] | IC50 [12] [nM] | further results
Cc1ccc(S(=O)(=O)Nc2ccc3c(c2)/C(=C/c2cn[nH]c2)C(=O)N3)cc1 [SB18, (E/Z)—N-(3-((1H-pyrazol-4-yl)methylene)-2-oxoindolin-5-yl)-4-methylbenzenesulfonamide] | 80 | 48 | 42 | 77 | 54 | 56 | 54 | 58 | 34 | 77 | 64 | 59 | 100 to 20000 | – | – | – | – | – | – | – | IC50 [5, 17]: 100 to 200 nM
Cc1ccc(S(=O)(=O)Nc2ccc3c(c2)/C(=C/c2cnc(C)[nH]2)C(=O)N3)cc1 [SB14, (Z)-4-methyl-N-(3-((2-methyl-1H-imidazol-5-yl)methylene)-2-oxoindolin-5-yl)benzenesulfonamide] | 97 | 128 | 65 | 92 | 113 | 57 | 95 | 77 | 41 | 84 | 102 | 70 | 100 to 20000 | – | – | – | – | – | – | – | –
Cc1ccc(S(=O)(=O)Nc2ccc3c(c2)C(=Cc2cccnc2N)C(=O)N3)cc1 [SB20, N-(3-((2-aminopyridin-3-yl)methylene)-2-oxoindolin-5-yl)-4-methylbenzenesulfonamide] | – | – | – | – | – | – | – | – | – | – | – | – | 100 to 20000 | – | – | – | – | – | – | – | –
Cc1ccc(S(=O)(=O)Nc2ccc3c(c2)C(=Cc2nccn2C)C(=O)N3)cc1 (stereo in doubt) [FC91, N-{(3E)-3-[(1-methyl-1H-imidazol-2-yl)methylidene]-2-oxo-2,3-dihydro-1H-indol-5-yl}-4-methylbenzenesulfonamide] | 79 | 38 | 48 | 63 | 46 | 55 | 84 | 55 | 47 | 73 | 52 | 60 | – | 25 | 40 | 50 | 30 | 50 | 50 | 50 | IC50 [13]: 50 nM; IC50 [14]: < 1000 nM; IC50 in eight different lymphoma cell lines ([14]; eight different lymphoma cell lines): nanomolar range; IC50 [5, 17]: 100 to 200 nM
Cc1ccc(S(=O)(=O)Nc2ccc3c(c2)C(=Cc2cccnc2N)C(=O)N3)cc1 [SB20A, N-(3-((2-aminopyridin-3-yl)methylene)-2-oxoindolin-5-yl)-4-methylbenzenesulfonamide] | 78 | 99 | 35 | 85 | – | – | 99 | 77 | 63 | 82 | 89 | – | – | – | – | – | – | – | – | – | –
CS(=O)(=O)Nc1ccc2c(c1)/C(=C/c1cccs1)C(=O)N2 [FC96, reference compound] | – | – | – | – | – | – | – | – | – | – | – | – | – | > 20000 | > 20000 | 15000 | 20000 | > 20000 | > 20000 | > 20000 | IC50 [13]: > 20000 nM; activity in lymphoma cell lines [14]: almost inactive
Cc1ccc(S(=O)(=O)Nc2ccc3c(c2)/C(=C/c2ncc[nH]2)C(=O)N3)cc1 [SB19, (Z)—N-(3-((1H-imidazol-2-yl)methylene)-2-oxoindolin-5-yl)-4-methylbenzenesulfonamide] | 74 | 74 | 37 | 78 | 74 | 51 | 81 | 61 | 43 | 80 | 85 | 59 | 100 to 20000 | – | – | – | – | – | – | – | IC50 [5, 17]: 100 to 200 nM
Cc1ccc(S(=O)(=O)Nc2ccc3c(c2)/C(=C/c2ccn[nH]2)C(=O)N3)cc1 [SB17, (Z)—N-(3-((1H-pyrazol-5-yl)methylene)-2-oxoindolin-5-yl)-4-methylbenzenesulfonamide] | 90 | 119 | 59 | 80 | 113 | 55 | 89 | 73 | 48 | 81 | 99 | 63 | 100 to 20000 | – | – | – | – | – | – | – | –
CS(=O)(=O)Nc1ccc2c(c1)/C(=C/c1cnc[nH]1)C(=O)N2 [FC100, reference compound] | – | – | – | – | – | – | – | – | – | – | – | – | – | > 20000 | > 20000 | 16000 | 5500 | 19000 | > 20000 | > 20000 | IC50 [13]: 8000 nM; activity in lymphoma cell lines [14]: almost inactive
Cc1ccc(S(=O)(=O)Nc2ccc3c(c2)/C(=C/c2cnc[nH]2)C(=O)N3)cc1 [FC85, N-[(3Z)-3-(1H-imidazol-5-ylmethylidene)-2-oxo-2,3-dihydro-1H-indol-5-yl]-4-methylbenzenesulfonamide] | 80 | 99 | 36 | 75 | 98 | 42 | 78 | 83 | 38 | 90 | 67 | 56 | 100 to 20000 | 500 | 600 | 1000 | 500 | 600 | 600 | 500 | IC50 [13]: 500 nM; IC50 [14]: < 1000 nM; inhibition of glioblastoma cell viability, combination vs single treatment [15]: significant increase in inhibition
Cc1ccc(S(=O)(=O)Nc2ccc3c(c2)C(=C2c4ccccc4-c4ccccc42)C(=O)N3)cc1 [SB21, N-(3-(9H-fluoren-9-ylidene)-2-oxoindolin-5-yl)-4-methylbenzenesulfonamide] | 82 | 134 | 37 | 93 | 114 | 60 | 91 | 94 | 15 | 108 | 103 | 64 | 100 to 20000 | – | – | – | – | – | – | – | –
